# Tested on: SK-RC-52.hFAP tumors
# Experiment: Quantitative biodistribution in SK-RC-52.hFAP tumor bearing mice
# Assay type: in vivo, mouse (female athymic Balb/c AnNRj-Foxn1)
# Conditions: i.v. 250 nmol/kg, 50 MBq/kg
# Procedure: SK-RC-52.hFAP were grown to 80% confluence in RPMI-1640 with 10% fetal bovine serum (FBS) and 1% antibiotic-antimycotic and detached with Trypsin-EDTA (ethylenediaminetetraacetic acid) 0.05%. Tumor cells were resuspended in Hanks' Balanced Salt Solution medium. Aliquots of 5 million cells (100 μL of suspension) were injected subcutaneously in the right flank of female athymic Balb/c AnNRj-Foxn1 mice (6 to 8 wk of age).
# Radiolabeling of ESV6-DOTAGA, Bi-ESV6-DOTAGA, Tri-ESV6-DOTAGA, Tetra-ESV6-DOTAGA, Hexa-ESV6-DOTAGA, Octa-ESV6-DOTAGA and FAP-2286 with lutetium-177 (a therapeutic radionuclide) was performed with different specific activities for three different studies (biodistribution, therapy and dose optimization).
# Prior to the biodistribution study, precursors (100 nmol) were dissolved in 100 μL of milliQ water and diluted with 200 μL of sodium acetate (1 M in water, pH=4.5). 20 MBq of ^177Lu solution were added and the mixture was heated at 90 °C for 10 minutes, followed by dilution with […] of PBS to achieve final volume of 2 mL (20 doses of 100 μL each).
# ESV6-DOTAGA, Bi-ESV6-DOTAGA, Tri-ESV6-DOTAGA, Tetra-ESV6-DOTAGA, Hexa-ESV6-DOTAGA, Octa-ESV6-DOTAGA and FAP-2286 were radiolabeled with ^177Lu as described above. Tumors were allowed to grow to an average volume of 300 mm^3. Mice were randomized and injected intravenously with radiolabeled preparations of ^177Lu-ESV6, ^177Lu-Bi-ESV6, ^177Lu-Tri-ESV6, Tetra-ESV6-DOTAGA, Hexa-ESV6-DOTAGA, Octa-ESV6-DOTAGA or ^177Lu-FAP-2286 (250 nmol/kg; 50 MBq/kg). Mice were euthanized at different time-points after the intravenous injection by CO2 asphyxiation. Tumors, organs, and blood were collected, weighted, and radioactivity was measured with a Packard Cobra Gamma Counter. Values are expressed as percent ID/g±SD [FIG. 4]. The % ID/g in the tumors was corrected considering the SK-RC-52.hFAP tumor growth rate.
# Quantitative in vivo biodistribution of ^177Lu-ESV6-DOTAGA, ^177Lu-Bi-ESV6-DOTAGA, ^177Lu-Tri-ESV6-DOTAGA, ^177Lu-FAP-2286, Tetra-ESV6-DOTAGA, Hexa-ESV6-DOTAGA and Octa-ESV6-DOTAGA at different time points after intravenous administration (250 nmol/kg, 50 MBq/kg) in mice bearing SK-RC-52.hFAP tumors, are shown in Tables 1 to 4 and 10 to 12. Data are reported as % ID/g±standard deviation.
# Tumor-to-organ ratios of ^177Lu-ESV6-DOTAGA, ^177Lu-Bi-ESV6-DOTAGA, ^177Lu-Tri-ESV6-DOTAGA, ^177Lu-FAP-2286, Tetra-ESV6-DOTAGA, Hexa-ESV6-DOTAGA and Octa-ESV6-DOTAGA, at different time points after intravenous administration (250 nmol/kg, 50 MBq/kg) in mice bearing SK-RC-52.hFAP tumors, are shown in Tables 5 to 8 and 13 to 15. Avg.=average; Std.d=standard deviation.
compound,measurement,setting,value
N#C[C@@H]1CC(F)(F)CN1C(=O)CNC(=O)c1ccnc2c(NC(=O)CCC(=O)NCCNC(=O)CCOCC(COCCC(=O)NCCNC(=O)CCC(=O)Nc3cccc4c(C(=O)NCC(=O)N5CC(F)(F)C[C@H]5C#N)ccnc34)NC(=O)CCOCC(COCCC(=O)NC(COCCC(=O)NCCNC(=O)CCC(=O)Nc3cccc4c(C(=O)NCC(=O)N5CC(F)(F)C[C@H]5C#N)ccnc34)COCCC(=O)NCCNC(=O)CCC(=O)Nc3cccc4c(C(=O)NCC(=O)N5CC(F)(F)C[C@H]5C#N)ccnc34)NC(=O)CCC(C(=O)O)N3CCN(CC(=O)[O-])CCN(CC(=O)[O-])CCN(CC(=O)[O-])CC3)cccc12.[177Lu+3] (stereo partly drawn) [^177Lu-Tetra-ESV6-DOTAGA],"Tumor to organs ratio, Blood",6 h,53.01
same,"Injected dose per gram, Blood",6 h post injection,1.16 % ID/g
same,"Tumor to organs ratio, Blood",24 h,146.80
same,"Injected dose per gram, Blood",24 h post injection,0.29 % ID/g
same,"Tumor to organs ratio, Blood",96 h,1062.04
same,"Injected dose per gram, Blood",96 h post injection,0.01 % ID/g
same,"Tumor to organs ratio, Heart",6 h,114.60
same,"Injected dose per gram, Heart",6 h post injection,0.50 % ID/g
same,"Tumor to organs ratio, Heart",24 h,166.10
same,"Injected dose per gram, Heart",24 h post injection,0.26 % ID/g
same,"Tumor to organs ratio, Heart",96 h,133.14
same,"Injected dose per gram, Heart",96 h post injection,0.12 % ID/g
same,"Tumor to organs ratio, Intestine",6 h,86.50
same,"Injected dose per gram, Intestine",6 h post injection,0.70 % ID/g
same,"Tumor to organs ratio, Intestine",24 h,284.15
same,"Injected dose per gram, Intestine",24 h post injection,0.15 % ID/g
same,"Tumor to organs ratio, Intestine",96 h,213.10
same,"Injected dose per gram, Intestine",96 h post injection,0.07 % ID/g
same,"Tumor to organs ratio, Kidney",6 h,27.69
same,"Injected dose per gram, Kidney",6 h post injection,2.10 % ID/g
same,"Tumor to organs ratio, Kidney",24 h,23.62
same,"Injected dose per gram, Kidney",24 h post injection,1.79 % ID/g
same,"Tumor to organs ratio, Kidney",96 h,2.36
same,"Injected dose per gram, Kidney",96 h post injection,5.77 % ID/g
same,"Tumor to organs ratio, Liver",6 h,15.19
same,"Injected dose per gram, Liver",6 h post injection,3.81 % ID/g
same,"Tumor to organs ratio, Liver",24 h,9.42
same,"Injected dose per gram, Liver",24 h post injection,4.52 % ID/g
same,"Tumor to organs ratio, Liver",96 h,2.07
same,"Injected dose per gram, Liver",96 h post injection,6.64 % ID/g
same,"Tumor to organs ratio, Lung",6 h,52.76
same,"Injected dose per gram, Lung",6 h post injection,1.09 % ID/g
same,"Tumor to organs ratio, Lung",24 h,138.32
same,"Injected dose per gram, Lung",24 h post injection,0.35 % ID/g
same,"Tumor to organs ratio, Lung",96 h,69.86
same,"Injected dose per gram, Lung",96 h post injection,0.24 % ID/g
same,"Tumor to organs ratio, Muscle",6 h,61.99
same,"Injected dose per gram, Muscle",6 h post injection,0.94 % ID/g
same,"Tumor to organs ratio, Muscle",24 h,98.07
same,"Injected dose per gram, Muscle",24 h post injection,0.44 % ID/g
same,"Tumor to organs ratio, Muscle",96 h,288.08
same,"Injected dose per gram, Muscle",96 h post injection,0.06 % ID/g
same,"Tumor to organs ratio, Spleen",6 h,44.00
same,"Injected dose per gram, Spleen",6 h post injection,1.33 % ID/g
same,"Tumor to organs ratio, Spleen",24 h,20.72
same,"Injected dose per gram, Spleen",24 h post injection,2.19 % ID/g
same,"Tumor to organs ratio, Spleen",96 h,3.88
same,"Injected dose per gram, Spleen",96 h post injection,3.64 % ID/g
same,"Tumor to organs ratio, Tail",6 h,24.06
same,"Injected dose per gram, Tail",6 h post injection,1.85 % ID/g
same,"Tumor to organs ratio, Tail",24 h,36.71
same,"Injected dose per gram, Tail",24 h post injection,1.16 % ID/g
same,"Tumor to organs ratio, Tail",96 h,24.96
same,"Injected dose per gram, Tail",96 h post injection,0.54 % ID/g
same,"Injected dose per gram, Tumor",6 h post injection,57.25 % ID/g
same,"Injected dose per gram, Tumor",24 h post injection,42.15 % ID/g
same,"Injected dose per gram, Tumor",96 h post injection,13.36 % ID/g

# From US20260364214A1, “MULTIVALENT FIBROBLAST ACTIVATION PROTEIN LIGANDS FOR TARGETED DELIVERY APPLICATIONS” (Philochem AG, priority 2022, published 2026)
